pKd: −log10 of the molar value. The source made the active and inactive calls. Rule as the data show it, for most assays here: actives have a measured Kd and inactives only a lower limit.
Experiments:
[1] = molecular target: Protein-tyrosine kinase 2-beta (Homo sapiens, UniProt Q14289)
[2] = molecular target: T1, Activin receptor type-1B (Homo sapiens, UniProt P36896)
T1 sequence (P36896 whole entry): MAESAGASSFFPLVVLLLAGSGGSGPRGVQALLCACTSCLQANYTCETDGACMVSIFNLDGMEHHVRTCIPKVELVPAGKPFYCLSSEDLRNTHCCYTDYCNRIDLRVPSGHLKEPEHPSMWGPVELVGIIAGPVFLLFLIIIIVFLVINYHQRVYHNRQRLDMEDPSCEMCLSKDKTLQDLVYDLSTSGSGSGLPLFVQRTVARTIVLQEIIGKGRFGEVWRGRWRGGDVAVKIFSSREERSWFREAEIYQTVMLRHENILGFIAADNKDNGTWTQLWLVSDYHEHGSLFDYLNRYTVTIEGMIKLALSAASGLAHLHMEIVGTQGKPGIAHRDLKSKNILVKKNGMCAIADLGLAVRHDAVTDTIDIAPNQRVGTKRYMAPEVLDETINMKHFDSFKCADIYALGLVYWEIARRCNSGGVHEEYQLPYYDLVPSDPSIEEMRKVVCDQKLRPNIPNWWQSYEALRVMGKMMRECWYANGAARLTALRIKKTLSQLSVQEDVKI

[3] = molecular target: T2, Exosome RNA helicase MTR4 (Homo sapiens, UniProt P42285)
T2 sequence (P42285 whole entry): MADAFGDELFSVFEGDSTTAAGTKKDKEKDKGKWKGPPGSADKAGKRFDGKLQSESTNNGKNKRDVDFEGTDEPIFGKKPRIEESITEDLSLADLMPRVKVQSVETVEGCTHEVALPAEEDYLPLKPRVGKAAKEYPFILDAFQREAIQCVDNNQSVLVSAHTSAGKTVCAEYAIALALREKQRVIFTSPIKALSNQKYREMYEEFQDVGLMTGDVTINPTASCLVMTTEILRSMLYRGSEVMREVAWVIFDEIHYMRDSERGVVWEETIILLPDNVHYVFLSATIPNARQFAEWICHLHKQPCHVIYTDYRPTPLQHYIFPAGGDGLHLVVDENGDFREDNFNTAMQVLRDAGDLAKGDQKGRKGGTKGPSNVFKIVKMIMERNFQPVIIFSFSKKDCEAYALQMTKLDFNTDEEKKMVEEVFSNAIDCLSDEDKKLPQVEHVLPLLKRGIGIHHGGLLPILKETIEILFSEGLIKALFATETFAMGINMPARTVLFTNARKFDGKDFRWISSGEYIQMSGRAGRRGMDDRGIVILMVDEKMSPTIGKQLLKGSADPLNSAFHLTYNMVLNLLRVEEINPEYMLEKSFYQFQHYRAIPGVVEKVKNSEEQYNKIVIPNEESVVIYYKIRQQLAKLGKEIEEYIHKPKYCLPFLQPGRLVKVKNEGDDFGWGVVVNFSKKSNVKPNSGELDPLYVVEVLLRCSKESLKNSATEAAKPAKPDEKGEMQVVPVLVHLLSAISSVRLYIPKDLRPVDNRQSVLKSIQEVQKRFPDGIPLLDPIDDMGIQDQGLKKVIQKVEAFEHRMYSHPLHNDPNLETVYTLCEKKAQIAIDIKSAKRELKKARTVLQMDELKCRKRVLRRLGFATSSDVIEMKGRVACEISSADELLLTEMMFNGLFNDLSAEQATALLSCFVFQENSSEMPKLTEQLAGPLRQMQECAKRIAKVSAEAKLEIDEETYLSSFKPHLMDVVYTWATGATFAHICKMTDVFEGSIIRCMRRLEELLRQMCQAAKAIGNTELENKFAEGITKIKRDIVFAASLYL

[4] = molecular target: Casein kinase I isoform epsilon (Homo sapiens, UniProt P49674)
[5] = molecular target: Ribosomal protein S6 kinase alpha-5 (Homo sapiens, UniProt O75582)
[6] = molecular target: T3, Serine/threonine-protein kinase Nek3 (Homo sapiens, UniProt P51956)
T3 sequence (P51956 whole entry): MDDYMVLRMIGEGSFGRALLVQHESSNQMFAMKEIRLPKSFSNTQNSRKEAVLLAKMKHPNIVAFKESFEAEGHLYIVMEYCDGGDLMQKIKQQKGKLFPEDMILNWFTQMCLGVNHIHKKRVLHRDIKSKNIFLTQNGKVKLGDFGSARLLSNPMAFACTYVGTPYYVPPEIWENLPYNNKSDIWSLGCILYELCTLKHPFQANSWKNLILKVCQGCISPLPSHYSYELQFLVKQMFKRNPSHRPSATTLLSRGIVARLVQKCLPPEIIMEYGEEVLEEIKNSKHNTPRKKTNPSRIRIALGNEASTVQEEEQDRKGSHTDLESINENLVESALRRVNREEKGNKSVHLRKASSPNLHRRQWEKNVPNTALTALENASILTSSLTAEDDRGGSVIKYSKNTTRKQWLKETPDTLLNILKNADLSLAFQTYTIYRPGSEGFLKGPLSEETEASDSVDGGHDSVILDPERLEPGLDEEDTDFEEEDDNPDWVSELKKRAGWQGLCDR
Also: in the data inactive means no Kd found up to 30 µM.

Chain of Ribosomal protein S6 kinase alpha-5 (O75582 whole entry): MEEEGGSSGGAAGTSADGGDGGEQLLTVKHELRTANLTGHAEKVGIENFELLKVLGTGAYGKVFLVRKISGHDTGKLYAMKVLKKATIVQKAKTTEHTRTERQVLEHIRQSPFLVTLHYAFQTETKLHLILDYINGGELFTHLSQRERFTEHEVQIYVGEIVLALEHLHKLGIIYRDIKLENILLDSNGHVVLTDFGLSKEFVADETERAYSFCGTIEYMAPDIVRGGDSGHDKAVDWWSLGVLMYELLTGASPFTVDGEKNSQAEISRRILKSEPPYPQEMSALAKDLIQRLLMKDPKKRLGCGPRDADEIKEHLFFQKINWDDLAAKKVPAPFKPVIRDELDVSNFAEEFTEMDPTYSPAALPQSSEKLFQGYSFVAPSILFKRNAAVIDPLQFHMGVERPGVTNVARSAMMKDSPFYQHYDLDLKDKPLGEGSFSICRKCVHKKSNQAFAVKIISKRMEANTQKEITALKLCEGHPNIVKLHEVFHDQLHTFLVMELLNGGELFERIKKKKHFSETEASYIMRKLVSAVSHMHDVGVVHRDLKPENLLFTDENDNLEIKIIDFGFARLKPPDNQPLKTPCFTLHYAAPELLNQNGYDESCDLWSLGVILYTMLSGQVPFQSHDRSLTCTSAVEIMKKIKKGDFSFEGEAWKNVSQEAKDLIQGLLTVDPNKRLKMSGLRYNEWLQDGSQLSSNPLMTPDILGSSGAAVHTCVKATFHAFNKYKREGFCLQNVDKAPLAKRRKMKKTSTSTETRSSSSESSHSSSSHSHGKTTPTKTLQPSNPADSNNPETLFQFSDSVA
Chain of Protein-tyrosine kinase 2-beta (Q14289 whole entry): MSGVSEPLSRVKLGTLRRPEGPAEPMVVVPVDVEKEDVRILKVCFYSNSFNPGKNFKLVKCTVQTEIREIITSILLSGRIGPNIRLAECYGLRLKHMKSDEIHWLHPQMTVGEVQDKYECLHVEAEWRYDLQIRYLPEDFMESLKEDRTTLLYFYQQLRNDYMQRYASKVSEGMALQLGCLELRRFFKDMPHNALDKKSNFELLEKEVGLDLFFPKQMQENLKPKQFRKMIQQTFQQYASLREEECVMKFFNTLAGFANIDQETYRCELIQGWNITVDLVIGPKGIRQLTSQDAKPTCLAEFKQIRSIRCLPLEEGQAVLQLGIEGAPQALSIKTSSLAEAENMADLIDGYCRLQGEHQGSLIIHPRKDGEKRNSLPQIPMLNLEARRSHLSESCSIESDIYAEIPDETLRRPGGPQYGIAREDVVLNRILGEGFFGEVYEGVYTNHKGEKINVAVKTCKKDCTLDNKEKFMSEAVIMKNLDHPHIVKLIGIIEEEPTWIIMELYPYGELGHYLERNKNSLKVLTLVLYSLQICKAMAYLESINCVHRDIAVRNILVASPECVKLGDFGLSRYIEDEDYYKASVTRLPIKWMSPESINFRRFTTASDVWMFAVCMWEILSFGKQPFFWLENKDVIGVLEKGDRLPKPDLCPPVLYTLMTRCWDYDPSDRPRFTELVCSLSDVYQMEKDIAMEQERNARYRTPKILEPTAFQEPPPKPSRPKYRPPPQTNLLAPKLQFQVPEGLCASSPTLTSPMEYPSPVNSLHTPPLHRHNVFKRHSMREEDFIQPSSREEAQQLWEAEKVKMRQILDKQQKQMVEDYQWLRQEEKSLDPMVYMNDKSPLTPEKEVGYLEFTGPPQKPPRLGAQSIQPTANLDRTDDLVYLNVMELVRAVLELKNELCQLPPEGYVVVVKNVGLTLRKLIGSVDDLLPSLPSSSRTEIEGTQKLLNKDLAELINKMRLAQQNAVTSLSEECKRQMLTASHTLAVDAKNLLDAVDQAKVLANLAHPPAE
Chain of Casein kinase I isoform epsilon (P49674 whole entry, canonical isoform): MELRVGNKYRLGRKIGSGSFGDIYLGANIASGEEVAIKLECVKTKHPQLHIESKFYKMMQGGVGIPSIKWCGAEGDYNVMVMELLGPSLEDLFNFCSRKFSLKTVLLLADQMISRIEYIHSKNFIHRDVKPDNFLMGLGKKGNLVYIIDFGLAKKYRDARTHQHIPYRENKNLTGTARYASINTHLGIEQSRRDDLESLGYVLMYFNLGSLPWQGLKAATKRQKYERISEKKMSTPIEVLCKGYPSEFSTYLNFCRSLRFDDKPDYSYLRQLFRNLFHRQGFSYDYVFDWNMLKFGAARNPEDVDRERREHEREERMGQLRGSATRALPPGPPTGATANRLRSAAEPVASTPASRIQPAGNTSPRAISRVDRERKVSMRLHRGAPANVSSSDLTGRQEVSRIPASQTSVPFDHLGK

SMILES | Kd [1] | Kd [2] | Kd [3] | Kd [4] | Kd [5] | Kd [6] | pKd [3]
COc1cc2ncnc(Nc3ccc(F)c(Cl)c3)c2cc1NC(=O)/C=C/CN1CCCCC1 [DACOMITINIB ANHYDROUS] | > 30 µM (inactive) | > 30 µM (inactive) | > 30 µM (inactive) | > 30 µM (inactive) | > 30 µM (inactive) | > 30 µM (inactive) | 
C#Cc1cccc(Nc2ncnc3cc4c(cc23)OCCOCCOCCO4)c1 [ICOTINIB] | > 30 µM (inactive) | > 30 µM (inactive) | > 30 µM (inactive) | > 30 µM (inactive) | > 30 µM (inactive) | > 30 µM (inactive) | 
C[C@]1(O)C[C@@H](c2nc(-c3ccc4ccc(-c5ccccc5)nc4c3)c3c(N)nccn32)C1 [LINSITINIB] | > 30 µM (inactive) | > 30 µM (inactive) | > 30 µM (inactive) | > 30 µM (inactive) |  | > 30 µM (inactive) | 
COc1cc2ncnc(Nc3ccc(O)cc3)c2cc1OC [WHI-P131] | > 30 µM (inactive) | > 30 µM (inactive) | > 30 µM (inactive) | > 30 µM (inactive) | > 30 µM (inactive) | > 30 µM (inactive) | 
O=C(O)c1ccc2c(c1)nc(Nc1cccc(Cl)c1)c1ccncc12 [SILMITASERTIB] | > 30 µM (inactive) | > 30 µM (inactive) | > 30 µM (inactive) | > 30 µM (inactive) | > 30 µM (inactive) | > 30 µM (inactive) | 
CN(c1ncccc1CNc1nc(Nc2ccc3c(c2)CC(=O)N3)ncc1C(F)(F)F)S(C)(=O)=O [PF-00562271] |  | > 30 µM (inactive) | > 30 µM (inactive) | > 30 µM (inactive) |  | > 30 µM (inactive) | 
O[C@H]1CC[C@H](Nc2ncc3nc(Nc4c(F)cc(F)cc4F)n([C@H]4CCOC4)c3n2)CC1 [TANZISERTIB] | > 30 µM (inactive) | > 30 µM (inactive) | > 30 µM (inactive) | > 30 µM (inactive) | > 30 µM (inactive) | > 30 µM (inactive) | 
Cn1c(=O)n(-c2ccc(C(C)(C)C#N)cc2)c2c3cc(-c4cnc5ccccc5c4)ccc3ncc21 [DACTOLISIB] | > 30 µM (inactive) | > 30 µM (inactive) | > 30 µM (inactive) | > 30 µM (inactive) | > 30 µM (inactive) | > 30 µM (inactive) | 
S=C(NCc1ccc2c(c1)OCO2)N1CCN(c2ncnc3c2oc2ccccc23)CC1 [AMUVATINIB] | > 30 µM (inactive) | > 30 µM (inactive) | > 30 µM (inactive) | > 30 µM (inactive) | > 30 µM (inactive) | > 30 µM (inactive) | 
CN1CCN(c2nc(C3=C(c4c[nH]c5ccccc45)C(=O)NC3=O)c3ccccc3n2)CC1 [SOTRASTAURIN] | > 30 µM (inactive) | > 30 µM (inactive) | > 30 µM (inactive) | > 30 µM (inactive) | > 30 µM (inactive) | > 30 µM (inactive) | 
CC1(COc2ccc3c(c2)ncn3-c2ccc3cccc(N4CCC(N)CC4)c3n2)COC1 [CRENOLANIB] | > 30 µM (inactive) | > 30 µM (inactive) | > 30 µM (inactive) | > 30 µM (inactive) | > 30 µM (inactive) | > 30 µM (inactive) | 
Cn1cnc2c(F)c(Nc3ccc(Br)cc3Cl)c(C(=O)NOCCO)cc21 [SELUMETINIB] |  |  | > 30 µM (inactive) |  |  |  | 
O=S(=O)(c1cccc2cnccc12)N1CCCNCC1 [FASUDIL] | > 30 µM (inactive) | > 30 µM (inactive) | > 30 µM (inactive) | > 30 µM (inactive) |  | > 30 µM (inactive) | 
CNC(=O)c1cc(COc2nnc(Nc3ccc(Cl)cc3)c3ccoc23)ccn1 [TELATINIB] | > 30 µM (inactive) | > 30 µM (inactive) | > 30 µM (inactive) | > 30 µM (inactive) | > 30 µM (inactive) | > 30 µM (inactive) | 
COc1cc2c(N3CCN(C(=O)Nc4ccc(OC(C)C)cc4)CC3)ncnc2cc1OCCCN1CCCCC1 [TANDUTINIB] |  |  | > 30 µM (inactive) |  |  |  | 
COc1cc(F)c(F)c(Nc2ccc(I)cc2F)c1NS(=O)(=O)C1(C[C@H](O)CO)CC1 [REFAMETINIB] | > 30 µM (inactive) | > 30 µM (inactive) | > 30 µM (inactive) | > 30 µM (inactive) | > 30 µM (inactive) | > 30 µM (inactive) | 
COc1cc2c(Oc3ccc4[nH]c(C)cc4c3F)ncnc2cc1OCCCN1CCCC1 [CEDIRANIB] |  |  |  |  |  |  | 5.58
CNC(=O)c1ccc(Nc2ncc(C(F)(F)F)c(NCc3nccnc3N(C)S(C)(=O)=O)n2)cc1 [DEFACTINIB] | 0.423 µM (active) | > 30 µM (inactive) | > 30 µM (inactive) | > 30 µM (inactive) | > 30 µM (inactive) | > 30 µM (inactive) | 
CC1(C)CNc2cc(NC(=O)c3cccnc3NCc3ccncc3)ccc21 [MOTESANIB] |  |  | > 30 µM (inactive) |  |  |  | 
CN(C)C/C=C/C(=O)Nc1cc2c(Nc3ccc(F)c(Cl)c3)ncnc2cc1O[C@H]1CCOC1 [AFATINIB] |  |  | > 30 µM (inactive) |  |  |  | 
N#CCNC(=O)c1ccc(-c2ccnc(Nc3ccc(N4CCOCC4)cc3)n2)cc1 [MOMELOTINIB] |  | > 30 µM (inactive) | > 30 µM (inactive) | > 30 µM (inactive) | > 30 µM (inactive) | 0.286 µM (active) | 

Other lines, results leading:

Kd [1] | Kd [2] | Kd [3] | Kd [4] | Kd [5] | Kd [6] | pKd [3] | SMILES
> 30 µM (inactive) | > 30 µM (inactive) | > 30 µM (inactive) | > 30 µM (inactive) | > 30 µM (inactive) | > 30 µM (inactive) |  | Cn1c(=O)c(F)c(Nc2ccc(I)cc2F)c2c(=O)n(C[C@@H](O)CO)cnc21 [TAK-733]
> 30 µM (inactive) | > 30 µM (inactive) | > 30 µM (inactive) | > 30 µM (inactive) | > 30 µM (inactive) | > 30 µM (inactive) |  | COc1cc2ncnc3c2cc1OCCCCCN(C)Cc1ccc(Br)cc1N3 [JNJ-26483327]
> 30 µM (inactive) | > 30 µM (inactive) | > 30 µM (inactive) | > 30 µM (inactive) | > 30 µM (inactive) | > 30 µM (inactive) |  | Cc1cc(C(=O)Nc2cc(Oc3ccc4nc(NC(=O)C5CC5)cn4n3)ccc2C)n(C)n1 [TAK-593]
> 30 µM (inactive) | > 30 µM (inactive) | > 30 µM (inactive) | > 30 µM (inactive) | > 30 µM (inactive) | > 30 µM (inactive) |  | CCOc1ccn(-c2ccc(F)cc2)c(=O)c1C(=O)Nc1ccc(Oc2ccnc(N)c2Cl)c(F)c1 [BMS-777607]
> 30 µM (inactive) | 0.549 µM (active) | > 30 µM (inactive) | > 30 µM (inactive) | > 30 µM (inactive) | > 30 µM (inactive) |  | COc1cccc2cc(-c3nc([C@H]4CC[C@H](C(=O)O)CC4)n4ncnc(N)c34)[nH]c12 [OSI-027]
 |  | > 30 µM (inactive) |  |  |  |  | C[C@@]1(C(=O)Nc2ccc(F)nc2)CCCN1c1nc(Nc2cc(C3CC3)n[nH]2)c2cccn2n1 [BMS-754807]

Source: ChEMBL document CHEMBL3991601, “The target landscape of clinical kinase drugs” (Science, 2017)
